Broadly, the IC50 is the concentration at which inhibition is half-maximal.

Structures are written as SMILES.

The target of the first series is T1, CDC25B (Homo sapiens, UniProt P30305).
T1 construct: Catalytic domain of CDC25B (aa 378-566) was expressed and produced in E. coli into a GST fusion protein; GST; made in house; host or cells: E. coli
T1 sequence (P30305 378-566 isoform P30305-2): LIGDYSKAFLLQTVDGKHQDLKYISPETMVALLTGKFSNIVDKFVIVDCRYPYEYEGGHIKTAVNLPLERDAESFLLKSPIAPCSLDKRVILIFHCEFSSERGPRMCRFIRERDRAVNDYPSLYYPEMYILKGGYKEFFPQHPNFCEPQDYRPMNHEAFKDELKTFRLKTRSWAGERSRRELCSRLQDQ
Briefly: CDC25B enzyme assay. The format is biochemical. To be noted: catalytic domain of CDC25B (aa 378-566) GST fusion, 20 μm FDP, 1 hour at room temperature, fluorescence. The procedure: Catalytic domain of CDC25B (aa 378-566) was expressed and produced in E. coli into a GST fusion protein, which was used as zymogen. Enzyme assay was carried out on a 96-well plate, with the final reaction volume per well adjusted to 200 μL. 170 μL of a buffer solution (30 mM Tris buffer, pH 8.5, 75 mM NaCl, 0.67 mM EDTA, 1 mM DTT), 20 μL (0.2 μg) of CDC25B enzyme and 10 μL of the test compound dissolved in DMSO were added, so that the final concentration became 1 μg/mL CDC25B and 20 μm FDP. Measurement was made after culturing at room temperature for 1 hour. FDP and DTT were added to the buffer solution just before assay, so that a fresh status could be maintained. After 1 hour of culturing, fluorescence resultant from the enzymatic reaction was measured at 485 nm (excitation) and 538 nm (emission).
The screened compound was treated to a final concentration of 1, 2, 5 and 10 μm to obtain the % inhibition value. If the inhibitory effect was low (less than 50% at […]), the concentration of the compound was increased to 20 μm and the % inhibition value and the IC50 value were obtained.
Turning to `CCN1C(=O)SC(=Cc2cn(-c3ccccc3)nc2-c2ccccc2Cl)C1=O` [Compound 2], the IC50 worked out at 11400 nM.
Regarding `O=C1NC(=O)C(=Cc2cn(-c3ccccc3)nc2-c2cccc(Br)c2)S1` [Compound 3], half-maximal inhibition (IC50) was put at 9450 nM.
For `CCN1C(=O)S/C(=C\c2cn(-c3ccccc3)nc2-c2ccccc2Br)C1=O` [Compound 5], the IC50 is 8960 nM.
In turn, `CN1C(=O)S/C(=C\c2cn(-c3ccccc3)nc2-c2cccc([N+](=O)[O-])c2)C1=O` [Compound 15, 5-[3-(3-nitro)-1-phenyl-1H-pyrazol-4-ylmethylene]-3-methyl-thiazolidine-2,4-dione] returned a 50% inhibitory concentration (IC50) of 8280 nM.
Compound `O=C1NC(=O)/C(=C/c2cn(-c3ccccc3)nc2-c2cccc(C(F)(F)F)c2)S1` [Compound 16, 5-[3-(3-trifluoromethyl)-1-phenyl-1H-pyrazol-4-ylmethylene]-thiazolidine-2,4-dione] displayed an IC50 of 230 nM.
The compound `CCCOc1cc(OCCC)cc(-c2nn(-c3ccccc3)cc2/C=C2\SC(=O)NC2=O)c1` [Compound 25] had a half-inhibitory concentration (IC50) of 1860 nM.
`CC(C)Oc1cc(OC(C)C)cc(-c2nn(-c3ccccc3)cc2/C=C2\SC(=O)NC2=O)c1` [Compound 30] showed an IC50 of 5740 nM.
Still for that read-out and setting: then `O=C1NC(=O)/C(=C/c2cn(-c3ccccc3)nc2-c2cc(OCC3CC3)cc(OCC3CC3)c2)S1` [Compound 35], with 1520 nM; and `O=C1NC(=O)/C(=C/c2cn(-c3ccccc3)nc2-c2cc(OC3CCCC3)cc(OC3CCCC3)c2)S1` [Compound 41], with 540 nM; and `O=C1NC(=O)/C(=C/c2cn(-c3ccccc3)nc2-c2ccc(OC(F)F)c(OCC3CC3)c2)S1` [Compound 52], with 2830 nM.
Still for that read-out and setting: the value for `O=C1NC(=O)C(=Cc2cn(-c3ccccc3)nc2-c2cc(F)cc(F)c2)S1` [Compound 58, 5-[3-(3,5-difluoro-phenyl)-1-phenyl-1H-pyrazol-4-ylmethylene]-thiazolidine-2,4-dione] was 5790 nM.
In turn, `O=C1NC(=O)/C(=C/c2cn(-c3ccccc3)nc2-c2cc(OCc3ccccc3)cc(OCc3ccccc3)c2)S1` [Compound 62] yielded an IC50 of 230 nM.
The same measure, in the same setting: then `O=C1NC(=O)/C(=C/c2cn(-c3ccc([N+](=O)[O-])cc3)nc2-c2cc(OCc3ccccc3)cc(OCc3ccccc3)c2)S1` [Compound 65], with 210 nM; and `COc1c(Cl)cccc1-c1nn(-c2ccccc2)cc1/C=C1\SC(=O)NC1=O` [Compound 66], with 10600 nM.
Take `CCOc1c(Cl)cccc1-c1nn(-c2ccccc2)cc1/C=C1\SC(=O)NC1=O` [Compound 67]: the IC50 was determined as 3410 nM.
The same measure, in the same setting: the value for `CCOc1c(Cl)cccc1-c1nn(-c2ccccc2)cc1/C=C1\SC(=O)N(CC)C1=O` [Compound 69] was 7200 nM; that for `CCCOc1c(Cl)cccc1-c1nn(-c2ccccc2)cc1/C=C1\SC(=O)NC1=O` [Compound 70] was 4050 nM; that for `CCOc1ccc(-c2nn(-c3ccccc3)cc2C=C2SC(=O)NC2=O)cc1Br` [Compound 77, 5-[3-(3-bromo-4-ethoxy-phenyl)-1-phenyl-1H-pyrazol-4-ylmethylene]-thiazolidine-2,4-dione] was 5650 nM.
The same measure, in the same setting: then `CCCOc1ccc(-c2nn(-c3ccccc3)cc2/C=C2\SC(=O)NC2=O)cc1Br` [Compound 82], with 2810 nM.
`CCCOc1ccc(-c2nn(-c3ccccc3)cc2/C=C2\SC(=O)N(CCC)C2=O)cc1Br` [Compound 85]: the IC50 came to 2020 nM.
On the same count and under the same terms, then `C=CCOc1ccc(-c2nn(-c3ccccc3)cc2/C=C2\SC(=O)NC2=O)cc1Br` [Compound 88], with 2210 nM; and `O=C1NC(=O)/C(=C/c2cn(-c3ccccc3)nc2-c2ccc(OCC3CC3)c(Br)c2)S1` [Compound 94], with 1630 nM.
The compound `C#CCOc1ccc(-c2nn(-c3ccccc3)cc2/C=C2\SC(=O)NC2=O)cc1Br` [Compound 100] showed an IC50 of 2980 nM.
Compound `COc1ccc(-c2nn(-c3ccccc3)cc2/C=C2\SC(=O)NC2=O)cc1I` [Compound 111] came in with an IC50 of 3250 nM.
`CCOc1ccc(-c2nn(-c3ccccc3)cc2C=C2SC(=O)NC2=O)cc1I` [Compound 115] registered an IC50 of 570 nM.
Same read-out and setting: the value for `CCOc1ccc(-c2nn(-c3ccccc3)cc2/C=C2\SC(=O)N(CC)C2=O)cc1I` [Compound 117] was 590 nM; that for `CCCN1C(=O)S/C(=C\c2cn(-c3ccccc3)nc2-c2ccc(OCC)c(I)c2)C1=O` [Compound 118] was 9250 nM.
Same read-out and setting: then `CCOc1ccc(-c2nn(-c3ccccc3)cc2C=C2SC(=O)NC2=O)cc1I` [Compound 121], with 2600 nM.
The same measure, in the same setting: the value for `CCCOc1ccc(-c2nn(-c3ccccc3)cc2/C=C2\SC(=O)NC2=O)cc1I` [Compound 122] was 360 nM.
`C=CCOc1ccc(-c2nn(-c3ccccc3)cc2/C=C2\SC(=O)N(CC=C)C2=O)cc1I` [Compound 132] had an IC50 of 3600 nM.
The same measure, in the same setting: then `C#CCN1C(=O)S/C(=C\c2cn(-c3ccccc3)nc2-c2ccc(OCC=C)c(I)c2)C1=O` [Compound 133], with 4990 nM; and `COc1ccc(-c2nn(-c3ccccc3)cc2/C=C2\SC(=O)NC2=O)cc1C(C)C` [Compound 136], with 2060 nM.
The same measure, in the same setting: the value for `CCCOc1ccc(-c2nn(-c3ccccc3)cc2/C=C2\SC(=O)NC2=O)cc1C(C)C` [Compound 141] was 2240 nM; that for `CCCOc1ccc(-c2nn(-c3ccccc3)cc2/C=C2\SC(=O)NC2=O)cc1C(C)(C)C` [Compound 142] was 1480 nM; that for `COc1c(Br)cc(-c2nn(-c3ccccc3)cc2/C=C2\SC(=O)NC2=O)cc1Br` [Compound 145] was 1840 nM.
`CCOc1c(Br)cc(-c2nn(-c3ccccc3)cc2/C=C2\SC(=O)NC2=O)cc1Br` [Compound 151] displayed an IC50 of 1400 nM.
The compound `CCOc1c(Br)cc(-c2nn(-c3ccccc3)cc2/C=C2\SC(=O)N(CC)C2=O)cc1Br` [Compound 153] came in with an IC50 of 1360 nM.
In turn, `CCCOc1c(Br)cc(-c2nn(-c3ccccc3)cc2/C=C2\SC(=O)NC2=O)cc1Br` [Compound 163] yielded an IC50 of 1500 nM.
`C=CCOc1c(Br)cc(-c2nn(-c3ccccc3)cc2/C=C2\SC(=O)NC2=O)cc1Br` [Compound 164] came in with a 50% inhibitory concentration (IC50) of 170 nM.
Same read-out and setting: the value for `C#CCN1C(=O)S/C(=C\c2cn(-c3ccccc3)nc2-c2cc(Br)c(OCC=C)c(Br)c2)C1=O` [Compound 169] was 7140 nM.
Take `CCN1C(=O)S/C(=C\c2cn(-c3ccccc3)nc2-c2cc(Br)c(OCC3CC3)c(Br)c2)C1=O` [Compound 173]: 2350 nM corresponded to half-maximal inhibition (IC50).
`O=C1NC(=O)/C(=C/c2cn(-c3ccccc3)nc2-c2cc(Br)c(OC(F)F)c(Br)c2)S1` [Compound 178] registered an IC50 of 710 nM.
The compound `C=CCN1C(=O)S/C(=C\c2cn(-c3ccccc3)nc2-c2cc(Br)c(OC(F)F)c(Br)c2)C1=O` [Compound 182] had an IC50 of 13600 nM.
On the same count and under the same terms, then `COc1c(C(C)C)cc(-c2nn(-c3ccccc3)cc2/C=C2\SC(=O)NC2=O)cc1C(C)C` [Compound 184], with 3660 nM.
For `CCCOc1c(C(C)C)cc(-c2nn(-c3ccccc3)cc2/C=C2\SC(=O)NC2=O)cc1C(C)C` [Compound 190], the midpoint of inhibition, the IC50, lay at 1090 nM.
Still for that read-out and setting: the value for `CC(C)(C)c1cc(-c2nn(-c3ccccc3)cc2/C=C2\SC(=O)NC2=O)cc(C(C)(C)C)c1O` [Compound 192] was 3990 nM.

For the next series, the system named is C33A human uterine cancer cell line.
Experiment: not given
As to conditions: mouse, in vivo.
For `N.N.[Cl][Pt][Cl]` [cisplatin, reference compound], the “negative responses (reduced motion, lack of appetite)” value was “reduced motion or lack of appetite”.

(Values after US7718681B2, “5-(1,3-Diaryl-1H-pyrazol-4-ylmethylene)-thiazolidine,2,4-dione derivatives useful as anticancer agent” (Korea Research Institute of Chemical Technology, priority 2005, dated 2010).)
